Literature values as cited in patent US9020605B2, “Electroporation device” (OncoSec Medical Incorporated, priority 2012, dated 2015).

Conditions: P being the partition coefficient between octanol and water

Substance: bleomycin
- log P: very negative
